# According to PMC3968008 (PLoS ONE, 2014):
# Square brackets hold non-standard residues; d marks the D form. Peptide text beside a SMILES is read from it.
# Experiments:
# Micrococcus luteus = experiment: microbe, parasite or virus in culture; type: cell-based; details: 48 h
# Experimental: (§1) Antimicrobial activity of the peptides was evaluated against Escherichia coli JCM 5491, Pseudomonas aeruginosa JCM 6119, Staphylococcus aureus JCM2874, Salmonella Typhimurium JCM1652, Acinetobacter baumannii JCM6841, Bacteroides fragilis JCM11019, Fusobacterium nucleatum JCM11025, Penicillium glabrum JCM22534, Fusarium solani JCM11383, Alternaria alternata JCM5800 (RIKEN, A research institution for basic and applied science in Japan), Micrococcus luteus NBRC13867, Bacillus subtilis NBRC3134, Propionibacterium acnes NBRC107605, Trichophyton mentagrophytes NBRC6124, Trichophyton rubrum NBRC9185, Candida krusei NBRC1395 (National Institute of Technology and Evaluation, Tokyo, Japan), Salmonella Enteritidis IID604 (The Institute of Medical Science, The University of Tokyo, Tokyo, Japan). Additionally, the clinical isolates (Drug-sensitive/resistant Pseudomonas aeruginosa and Staphylococcus aureus, Osaka University Hospital) and multidrug-resistant Acinetobacter baumannii (ATCC BAA-1605) were used. […] Serial two-fold dilutions of peptide were added to 0.1 ml of medium containing each type of bacteria and fungi at concentrations of 0.4×10^4 – 5×10^4 CFU/ml. The plates were incubated at 37°C with vigorous shaking for 24 or 48 hours. The MICs were determined as the lowest concentrations of peptide that inhibited visible bacterial growth.
# Trichophyton rubrum = experiment: microbe, parasite or virus in culture; type: cell-based; details: 48 h
# Experimental: as §1
# E. coli (ATCC25922) = experiment: microbe, parasite or virus in culture; type: cell-based, Escherichia coli; details: ATCC25922, 48 h
# Experimental: as §1
# Alternaria alternata = experiment: microbe, parasite or virus in culture; type: cell-based; details: 48 h
# Experimental: as §1
# Salmonella Enteritidis = experiment: microbe, parasite or virus in culture; type: cell-based; details: 48 h
# Experimental: (§2) Antimicrobial activity of the peptides was evaluated against Escherichia coli JCM 5491, Pseudomonas aeruginosa JCM 6119, Staphylococcus aureus JCM2874, Salmonella Typhimurium JCM1652, Acinetobacter baumannii JCM6841, Bacteroides fragilis JCM11019, Fusobacterium nucleatum JCM11025, Penicillium glabrum JCM22534, Fusarium solani JCM11383, Alternaria alternata JCM5800 (RIKEN, A research institution for basic and applied science in Japan), Micrococcus luteus NBRC13867, Bacillus subtilis NBRC3134, Propionibacterium acnes NBRC107605, Trichophyton mentagrophytes NBRC6124, Trichophyton rubrum NBRC9185, Candida krusei NBRC1395 (National Institute of Technology and Evaluation, Tokyo, Japan), Salmonella Enteritidis IID604 (The Institute of Medical Science, The University of Tokyo, Tokyo, Japan). […] Serial two-fold dilutions of peptide were added to 0.1 ml of medium containing each type of bacteria and fungi at concentrations of 0.4×10^4 – 5×10^4 CFU/ml. The plates were incubated at 37°C with vigorous shaking for 24 or 48 hours. The MICs were determined as the lowest concentrations of peptide that inhibited visible bacterial growth.
# [1] = tested on: Multidrug-resistant Acinetobacter baumannii; type: cell-based; details: 48 h
# Experimental: as §2
# Fusarium solani = experiment: microbe, parasite or virus in culture; type: cell-based; details: 48 h
# Experimental: as §1
# Bacteroides fragilis = experiment: microbe, parasite or virus in culture; type: cell-based; details: 48 h
# Experimental: as §1
# Candida krusei = experiment: microbe, parasite or virus in culture; type: cell-based; details: 48 h
# Experimental: as §1
# Acinetobacter baumannii = type: cell-based; details: 48 h
# Experimental: as §2
# [2] = tested on: Carbapenem-resistant Pseudomonas aeruginosa; type: cell-based; details: 48 h
# Experimental: as §2
# [3] = peptide 500 μg/ml, 37°C, 3 or 10 minutes, acetonitrile/0.1% trifluoroacetate precipitation, HPLC, N = 2 (Fig. 1E)
# Experimental: In vitro stability studies were performed by incubating the peptide with rat or human serum. Human sera (Pool of donors, 5 men and 5 women) were commercially purchased from KAC (Kyoto, Japan), which has been permitted only for experiment. We don't use the human biological specimens without the documented informed consent. Rat sera were collected from rats. The peptide (500 μg/ml) was added to serum (300 μL) and incubated at 37°C. A part of samples (90 μL) were taken, and the proteins were precipitated with acetonitrile containing 0.1% trifluoroacetate (200 μL). The precipitate was separated by centrifugation. The supernatants were analyzed by high-performance liquid chromatography (HPLC).
# Salmonella Typhimurium = experiment: microbe, parasite or virus in culture; type: cell-based; details: murium, 48 h
# Experimental: as §2
# Bacillus subtilis = experiment: microbe, parasite or virus in culture; type: cell-based; details: 48 h
# Experimental: as §2
# S. aureus (ATCC29213) = experiment: microbe, parasite or virus in culture; type: cell-based, Staphylococcus aureus; details: ATCC29213, 48 h
# Experimental: as §1
# [4] = tested on: Trichophyton mentagrophytes; experiment: microbe, parasite or virus in culture; type: cell-based; details: 48 h
# Experimental: as §1
smiles,measurement,setting,value
CC[C@H](C)[C@H](NC(=O)[C@H](CC(C)C)NC(=O)[C@H](CCCCN)NC(=O)[C@H](CC(C)C)NC(=O)[C@@H](N)CCSC)C(=O)N[C@@H](Cc1ccccc1)C(=O)N[C@@H](CC(C)C)C(=O)N[C@@H](Cc1c[nH]cn1)C(=O)N[C@@H](CCCNC(=N)N)C(=O)N[C@@H](CC(C)C)C(=O)N[C@@H](CCCCN)C(=O)N[C@@H](CCCNC(=N)N)C(=O)N[C@@H](CCSC)C(=O)N[C@@H](CCCNC(=N)N)C(=O)N[C@@H](CCCCN)C(=O)N[C@@H](CCCNC(=N)N)C(=O)N[C@@H](CC(C)C)C(=O)N[C@H](CCCCN)C(=O)N[C@@H](CCCNC(=N)N)C(=O)N[C@@H](CCCCN)C(=O)O [SR-0379] (H-MLKLIFLHRLKRMRKRL[dK]RK-OH),MIC Micrococcus luteus,Micrococcus luteus,2 µg/mL
same,MIC Trichophyton rubrum,Trichophyton rubrum,64 µg/mL
same,MIC E. coli (ATCC25922),E. coli (ATCC25922),8 µg/mL
same,MIC Alternaria alternata,Alternaria alternata,32 µg/mL
same,MIC Salmonella Enteritidis,Salmonella Enteritidis,8 µg/mL
same,"MIC Acinetobacter baumannii, Multidrug-resistant",[1],16 µg/mL
same,MIC Fusarium solani,Fusarium solani,8 µg/mL
same,MIC Bacteroides fragilis,Bacteroides fragilis,32 µg/mL
same,MIC Candida krusei,Candida krusei,32 µg/mL
same,MIC Acinetobacter baumannii,Acinetobacter baumannii,8 µg/mL
same,"MIC Pseudomonas aeruginosa, Carbapenem-resistant",[2],16 to 64 µg/mL
same,Stability in human serum,[3]; human serum (pool of 5 men and 5 women) 300 μL,significantly improved
same,Stability in rat serum,[3]; rat serum 300 μL,significantly improved
same,MIC Salmonella Typhimurium,Salmonella Typhimurium,8 µg/mL
same,MIC Bacillus subtilis,Bacillus subtilis,2 µg/mL
same,MIC S. aureus (ATCC29213),S. aureus (ATCC29213),16 µg/mL
same,MIC Trichophyton mentagrophytes,[4],32 µg/mL
